# Measurements reported in article PMC8750417, “Intracellular Amplifiers of Reactive Oxygen Species Affecting Mitochondria as Radiosensitizers” (Cancers, 2021).
# Tests used:
# [1] = test system: AsPC1 cells; test: Cell viability by flow cytometry, AsPC1; type: cell-based, human; details: AsPC1, 72 h incubation
# Experimental: Table S3. Effects of the prodrugs on the viability of BL2 cell line (IC50 values) after 48 and […]
# AsPC1 cells The cells (20.000/well) were seeded in a 12-well plate and incubated for 24 h. Afterwards, the medium was changed and the cells were further incubated for 72 h with medium containing different concentrations of compounds 2c and 5b. Viable cells were determined based on the morphological parameters by using flow cytometry (Table S4).
# Table S4. Effects of the prodrugs on the viability of AsPC1 cell lines (IC50 values) after 72 […]
# Jurkat cells The cells were counted in MUSE Cell Analyzer using MUSE® Count &Viability Assay Kit (Merck-Millipore, Billerica, MA, USA) and adjusted to a density of 1.0 x 10^5/ml in RPMI 1640 medium (with 10% FCS and 1% glutamine). 9.000 cells per well per 90 µL were seeded into 96 well culture plates. The 30 mM prodrug stock solutions in DMSO were diluted to 300 µM, 100 µM, 30 µM and 10 µM in cell culture medium and 10 µL of the dilutions was pipetted to the cells, receiving final test concentrations of 30 µM, 10 µM, 3 µM and 1 µM. Every concentration was tested in triplicates. Cells with corresponding amounts of DMSO served as negative controls. After 48 h cells were mixed and 25 µL of […]
# [2] = Prodrug-induced generation of ROS in cell free settings (DCFH/H2O2); details: for ROS Release Efficacy: relative acceleration of the rate of DCFH fluorescence increase with H2O2, pH 7.4, FeSO4 = 1.0
# Description: As previously reported, the NAAF-prodrugs react with ROS like H2O2, first leading to the cleavage of the B-C-bond with the formation of the phenol derivatives (product 2c-1, Figure S49, SI). The latter compounds exist in equilibrium with the corresponding phenolates. The phenolates undergo the spontaneous 1,6-elimination of para-quinone methide (QM) followed by the release of CO2 with the formation of the N-alkylaminoferrocene NAAF drugs (product 2c-2, Figure S46, SI). By using electrospray ionization mass spectrometry (ESI–MS), we confirmed for one representative prodrug 2c that it reacts with H2O2 in cell free settings according to this common mechanism (ESI-MS, Figures S46–S48, SI). The NAAF is further oxidized by H2O2 or molecular oxygen with the generation of drug NAAF^+ and highly toxic HO• or/and O2^•−. Finally, the NAAF^+ is reduced by glutathione (GSH), thereby closing the catalytic cycle, in which the NAAF acts as a catalyst. We evaluated the formation of HO• or/and O2^•− by using 2′,7′-dichlorodihydrofluorescein (DCFH) as a probe (Table 1, Figure S49, SI). This probe is oxidized to the fluorescent product 2′,7′-dichlorofluorescein (DCF) in the presence of HO• or/and O2^•−. […] The lower activity of 2c and 2d correlates with their higher lipophilicity and their correspondingly higher propensity to form aggregates in aqueous solution (Figure S45, SI).
# Prodrug-induced generation of ROS in cell free settings
# 2',7'-Dichlorodihydrofluorescein diacetate (DCFH-DA, 4.9 mg) was dissolved in DMF (100 μL) and mixed with aqueous NaOH (0.1 M, 900 μL). The resulting mixture was incubated for 30 min at 22 °C in the dark to obtain a stock solution of 2',7'-dichlorodihydrofluorescein (DCFH, 10 mM). Next, DCFH (1 µL ) was added to the solution containing MOPS buf fer (100 mM, pH 7.4), N,N,N'N' -e thylenediaminetetraacetic acid (EDTA , 10 mM) and glutathione (GSH , 5 mM) (1 mL, final concentration of DCFH 10 μM). The reaction mixture was heated to 37 °C and H2O2 (1 µL, final concentration 10 mM) was added. The reaction was monitored by fluorescence spectroscopy: λex = 501 nm, λem = 523 nm. After around 5 min, prodrugs (1 mM in DMF, 10 μL) or positive control FeSO4 (1 mM in water, 10 μL) were added, and the fluorescence monitoring was continued until the fluorescence signal growth was stalled after approximately 100 to 300 min. A representative kinetics of ROS […]
# The data are presented in Table 1 as relative acceleration of the rate of the fluorescence increase, where the rate of the fluorescence increase obtained in the presence of positive control FeSO4 was set […]
# y = a time + b (a = (dF/dt) , min-1)
# Figure S49. Increase of the fluorescence intensity (λex = 501 nm, λem = 523 nm) upon oxidation of DCFH by H2O2 in the presence of FeSO4. Experimental details are provided in the description above. The time point of the FeSO4 addition is indicated with a black […]
# (also on this page, place not known: ° C µL) buffer N,N,N'N'-ethylenediaminetetraacetic (EDTA, (GSH, ° C FeSO 4 (λ ex λ em Fluorescence (a.u.) (dF/dt)0, min -1 Addition of)
# (1 picture or pasted object on this page, not shown here)
# [3] = test system: A2780 cells; test: Organelle-specific staining in A2780 cells (R123 MMP, AO lysosomes, ER, Golgi); type: cell-based, human; details: for effect on lysosomes (LY), endoplasmic reticulum (ER) and Golgi (GO) staining: A2780, 30 µM, 1-4 h; for MMP compared to the MMP of untreated cells: R123
# Experimental: Effect of prodrugs and controls on cellular organelles in A2780 cells: lysosomes (LY), endoplasmic reticulum (ER), Golgi (G) and mitochondria (Mit) (Figures 3, S56) A2780 cells were seeded in RPMI 1640 medium containing 5% FBS, 1% L-glutamine and 1% penicillin/streptomycin in a 24-well microtiter plate (total volume 0.5 mL) at a density of 200 cells/µL one day before the experiment. On the day of the experiment, prodrugs (“LY/ER/G”-experiments: stock solution - 3 mM, 5 µL, final concentration: 30 µM; “Mit”- experiment: stock solutions - 0.5, 1 and 3 mM, 5 µL, final concentrations: 5, 10, 30 µM) or carrier only (DMSO, 1%, v/v) were added to cells and incubated for 1, 4 and 24 h in a dark chamber filled with CO2 (5 %) at 37 °C. The cells were washed twice with DPBS buffer and the medium was replaced with HBSS (Hanks' Balanced Salt solution, 500 μL).
# Stock solutions of different dyes (5 µL) were added: concentrations of the stock solutions were 4 mg/L for Acridine orange (AO), 10 mg/L for Rhodamine 123 (R123), 1 µM for ER-Tracker-Green (ERG) and 10 µM for Golgi-Staining-Green (GO). […]
# Final concentrations of solutions were 40 µ g/L for AO, 100 µ g/L for R123, 0.01 µ M for ERG and 0.1 µ M for GO. The cells were incubated in the dark chamber filled with CO 2 (5%) at 37 ° C for 20 min. Afterwards the supernatant was removed, the cells were washed with DPBS buffer twice and detached from the culture dish using t rypsin/EDTA (0.025%/0.01%, v/v, 200 µ L). Next, the cells were re -suspended in fresh medium. Finally, the fluorescence of live cells (the number of total events was 5000, λex = 488 nm, λ em = 530 nm) in the suspensions was determined by using flow cytometry (N=3, Figure 3, S56).
# Figure S56. Effects of the prodrugs on mitochondria membrane potential (MMP) of A2780 cell lines after 1 -48 h incubation. *: p< 0.05; **: p< 0.01; ***: p< 0.001 , Student’s t test. […]
# reference (labelled on the plot). […]
SMILES,IC50 [1] [µM],"ROS-generating activity, fold lower than that of 2a and 2b ([2]; cell free DCFH assay)",ROS Release Efficacy [2],"effect on lysosomes (LY), endoplasmic reticulum (ER) and Golgi (GO) staining [3]","MMP compared to the MMP of untreated cells ([3]; A2780, 1 h incubation) [%]","MMP compared to the MMP of untreated cells ([3]; A2780, 24 h incubation) [%]"
CC1(C)OB(c2ccc(COC(=O)N(Cc3cn(Cc4ccc(Cn5cc(Cc6ccccc6)nn5)cc4)nn3)[c-]3cccc3)cc2)OC1(C)C.[Fe+2].c1cc[cH-]c1 [2c],7.1 ± 1,~ 2 fold,0.35 ± 0.17,affected neither LY nor ER nor GO,69 ± 11,30 ± 5
CC1(C)OB(c2ccc(COC(=O)N(Cc3cccc(CN4CCCCC4)c3)[c-]3cccc3)cc2)OC1(C)C.[Fe+2].c1cc[cH-]c1 [5b],6.7 ± 0.5,,,strongly affected lysosomes,,
CCOC(=O)CCCCCn1cc(CN(C(=O)OCc2ccc(B3OC(C)(C)C(C)(C)O3)cc2)[c-]2cccc2)nn1.[Fe+2].c1cc[cH-]c1 [compound 1],,,0.99 ± 0.16,,,
